Laboratory results from patent publication US20250188080A1, “IMIDAZOLONYLQUINOLINE COMPOUNDS AND THERAPEUTIC USES THEREOF” (Merck Patent GmbH, priority 2019, published 2025).

Key:
[1] = Microsomal stability (intrinsic clearance), mouse; assay type: in vitro ADME; design: microsomal CLint: dose or concentration left out as unconfirmed; conditions: for CLint (mouse): mouse microsomes
Description: (§1) A microsomal stability assay is used to measure in vitro clearance (Clint). The assay involves measuring the rate of disappearance of a compound due to its intrinsic attitude to be metabolized (“intrinsic” meaning that the disappearance is not affected by other properties like permeability, binding etc. that play a role when quantifying in vivo clearance). The microsomal stability (intrinsic clearance, Clint) and, thus, metabolic stability is generally given as μl/min/mg protein. It can be visualized as the volume of solution that 1 mg of microsomes is able to clear of the compound in one minute.
(§2) A Tecan Genesis workstation (RSP 150/8) was used for to perform the microsomal incubations. Analysis was carried out using a Waters ACQUITY UPLC system coupled to an ABSciex API3000 mass spectrometer. Data analysis was performed using Assay Explorer (Symyx).
(§3) • Potassium phosphate buffer: 0.05 M potassium phosphate buffer pH 7.4 containing 1 mM MgCl2 • NADPH (nicotinamide adenine dinucleotide phosphate): 22.5 mg NADPH-Na4 in 1.8 ml potassium phosphate buffer • Acetonitrile: 50 Vol % acetonitrile (1 volume acetonitrile, 1 volume water) • DMSO: 20 Vol % DMSO in water • Stock solution of 20 mg/ml human or mouse liver microsomes (protein)/ml in phosphate buffer • Stock solution of 10 mM compound in 100% DMSO
(§4) Dilution of test compounds was done in 2 steps starting from a 10 mM stock solution of the respective compound in 100% DMSO. First 4 μl stock solution was added to 196 μl of 20 Vol % DMSO. In a second step, 10 μl of the first dilution were added to 1590 μl potassium phosphate buffer to achieve a final concentration of 1.25 μM in the final compound dilution. Thus, the amount of organic solvent in the assay was kept to a minimum (<1%).
(§5) The human or mouse liver microsome (protein) solution to be used in the assay was prepared by mixing 750 μl stock solution (20 mg/ml) and 2250 μl potassium phosphate buffer to a final concentration of 5 mg/ml.
(§6) Incubation was carried out on a 96 deep well incubation plate. […]

[2] = Microsomal stability (intrinsic clearance), human; assay type: in vitro ADME; design: microsomal CLint: dose or concentration left out as unconfirmed; conditions: for microsomal CLint: liver microsomes, pH 7.4
Description: as §1, §2, §3, §4, §5, §6

[3] = molecular target: T1, human phosphodiesterase-4D2 (Homo sapiens, UniProt Q08499); assay: PDE4D2 assay (Cerep); assay type: biochemical
T1 construct: purchased Cerep 4077; host or cells: Sf9 cells
T1 sequence (Q08499 303-809 limits assumed): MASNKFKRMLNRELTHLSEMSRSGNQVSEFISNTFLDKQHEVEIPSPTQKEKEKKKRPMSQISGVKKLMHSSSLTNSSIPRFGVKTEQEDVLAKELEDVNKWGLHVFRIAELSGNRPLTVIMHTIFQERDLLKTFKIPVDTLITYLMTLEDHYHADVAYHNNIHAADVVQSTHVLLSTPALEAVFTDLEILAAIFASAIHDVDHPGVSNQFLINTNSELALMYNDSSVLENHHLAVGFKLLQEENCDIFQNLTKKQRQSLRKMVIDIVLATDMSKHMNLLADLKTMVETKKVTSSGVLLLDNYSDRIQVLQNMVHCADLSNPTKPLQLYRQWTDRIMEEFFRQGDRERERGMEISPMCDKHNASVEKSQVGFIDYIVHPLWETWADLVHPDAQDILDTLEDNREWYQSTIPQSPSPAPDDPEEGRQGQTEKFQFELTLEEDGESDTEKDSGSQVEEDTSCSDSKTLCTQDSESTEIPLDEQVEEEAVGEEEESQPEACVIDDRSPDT
Protocol: A commercially available assay of Cerep was used (Catalog ref. 4077; SOP no 1C1045) The assay is designed to evaluate the effects of test compounds on the activity of the human phosphodiesterase-4D2 quantified by measuring the formation of 5′AMP from cAMP using a human recombinant enzyme expressed in Sf9 cells.
The test compound, reference compound or water (control) are added to a buffer containing 40 mM Tris/HCl (pH 7.4) and 8 mM MgCl2, 450 nM cAMP and 0.0125 μCi [^3H]cAMP.
Thereafter, the reaction is initiated by addition of the enzyme (about 1.5 U) and the mixture is incubated for 20 min at 22° C.
For basal control measurements, the enzyme is omitted from the reaction mixture.
Following incubation SPA (scintillation proximity assay) beads are added.
After 30 min at 22° C. under shaking, the amount of [^3H]5′AMP is quantified with a scintillation counter (Topcount, Packard).
The results are expressed as a percent inhibition of the control enzyme activity.
The standard inhibitory reference compound is Ro 20-1724, which is tested in each experiment at several concentrations to obtain an inhibition curve from which its IC50 value is calculated.

[4] = test system: pDNA-PK (Cellular mechanistic DNA-PK, HCT-116); assay: pDNA-PK cellular assay; assay type: cell-based, human; conditions: HCT-116, 10 μM bleomycin
Protocol: HCT116 cells are cultured in MEM alpha medium with 10% fetal calf serum and 2 mM glutamine at 37° C. and 10% CO2. The cells were detached from the bottom of the culture vessels using trypsin/EDTA, centrifuged in centrifuge tubes, taken up in fresh medium and the cell density was determined. 100,000 cells were seeded in 1 ml of culture medium per well of a 24-well cell culture plate and cultured overnight. The next day, 10 μM bleomycin (DNA intercalator and DNA double-strand breaker inducer) and the test substances in fresh culture medium were added to the cells and cultured for a further six hours. Cell lysis was then performed and the cell lysates were spotted on a 96-well ELISA plate (Sigma-Aldrich WH0005591M2: total DNA-PK, Abcam ab18192 or Epitomics EM09912: phospho-serine 2056 DNA-PK), which was blocked and coated with DNA-PK specific antibody, and incubated at 4° C. overnight. Subsequently, the 96-well ELISA plates were treated with a detection antibody (Abcam ab79444: total DNA-PK) and a streptavidin-HRP conjugate. The development of the enzymatic reaction was carried out using a chemiluminescent reagent, the chemiluminescence was measured using the Mithras LB940. The signals with the phospho-DNA-PK specific antibody were normalized to the signal with the antibody against the whole protein DNA-PKc. […] The DMSO control was used as blank.

CLint (mouse) [1] [μl/min/mg protein] | CLint (human) ([2]; human microsomes) [μl/min/mg protein] | IC50 [3] [µM] | IC50 [4] [µM] | microsomal CLint ([1]; mouse, liver microsomes, pH 7.4, mouse microsomes) [µL/min/mg] | microsomal CLint [2] [µL/min/mg] | IC50 ([4]; Homo sapiens) [µM] | Compound
103 | < 10 | 0.44 | > 30 | – | – | – | COc1cc2ncc3c(c2cc1-c1cn(C)nc1C)n(-c1c(F)cncc1OC)c(=O)n3C (single isomer, unassigned) [Compound 2, 8-(1,3-Dimethyl-1H-pyrazol-4-yl)-1-(Ra)-(3-fluoro-5-methoxy-pyridin-4-yl)-7-methoxy-3-methyl-1,3-dihydro-imidazo[4,5-c]quinolin-2-one]
– | – | 0.6 | – | 61 | 19 | > 30 | COc1cc2ncc3c(c2cc1-c1cn(C)nc1C)n(-c1c(F)cncc1OC)c(=O)n3C [Compound Y, 8-(1,3-dimethyl-1H-pyrazol-4-yl)-1-(3-fluoro-5-methoxypyridin-4-yl)-7-methoxy-3-methyl-1,3-dihydroimidazo[4,5-c]quinolin-2-one, reference compound]
22 | – | 3 | – | – | < 10 | > 30 | COc1cc2ncc3c(c2cc1-c1cn(C)nc1C)n(-c1c(F)cncc1OC)c(=O)n3C (single isomer, unassigned) [Compound 1, 8-(1,3-Dimethyl-1H-pyrazol-4-yl)-1-(Sa)-(3-fluoro-5-methoxy-pyridin-4-yl)-7-methoxy-3-methyl-1,3-dihydro-imidazo[4,5-c]quinolin-2-one]
